From ChEMBL document CHEMBL1159204, “Limonoids showing selective toxicity to DNA repair-deficient yeast and other constituents of Trichilia emetica” (J Nat Prod, 1998)
In brackets after ≈: the same amount, converted by molar mass.

Tests used:
Saccharomyces cerevisiae [1] = test: DNA damaging activity against RS 188N (RAD+) yeast assessed as drug level required to produce 12 mm zone of inhibition; type: functional
Saccharomyces cerevisiae [2] = test: DNA damaging activity against DNA repair-deficient RS 322YK (rad 52Y) yeast assessed as drug level required to produce 12 mm zone of inhibition; type: functional
Vero = test: Cytotoxicity against african green monkey Vero cells; type: cell-based; conditions: Chlorocebus sabaeus

Row | SMILES | IC12 (Saccharomyces cerevisiae [1]) | IC12 (Saccharomyces cerevisiae [2]) | IC50 (Vero)
1 | CC[C@@]1(O)C(=O)OCc2c1cc1n(c2=O)Cc2cc3ccccc3nc2-1 [CAMPTOTHECIN] | 110 µg/mL | 0.6 µg/mL | –
2 | C=C1[C@@H]([C@@]2(C)[C@@H](OC(C)=O)C[C@@]3(O)OC[C@](C)(O3)[C@@H]2CC(=O)OC)[C@@H](OC=O)[C@H](OC(=O)C(O)C(C)CC)[C@@]2(C)[C@H](c3ccoc3)CC(=O)[C@]12O (stereo not given in full) | 100 µg/mL | 0.9 µg/mL | 12 µg/mL (≈ 16.6 µM)
